Source: patent US20260262643A1, “HERBICIDAL BENZOXAZINES” (FMC CORPORATION, priority 2022, published 2026)

How the values were obtained:
oat, wild [1] = assay: Test A preemergence; format: in vivo, Avena fatua
Outline: (§1)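 Loam/sand soil; pre-em directed soil spray at planting, post-em spray at 1–2 leaf (2–10 cm). Compound in non-phytotoxic solvent + surfactant. Greenhouse 10 d; visual injury vs untreated, 0 = no effect, 100 = complete control.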

pigweed, palmer [2] = assay: Test A preemergence; format: in vivo, Amaranthus palmeri
Outline: as §1

horseweed = assay: Test A postemergence; format: in vivo, Erigeron canadensis; conditions: postemergence, 10 days; for Horseweed plant response rating: 125 g ai/ha, 0 to 100 scale, 0 no effect, 100 complete control; for Plant response rating, Horseweed: 500 g ai/ha, visual injury, 0 to 100 scale (0 no effect, 100 complete control)
Outline: as §1

ragweed [3] = assay: Test A preemergence; format: in vivo, Ambrosia artemisiifolia
Outline: as §1

wheat [4] = assay: Test A preemergence; format: in vivo, Triticum aestivum
Outline: as §1

foxtail, giant [5] = assay: Test A postemergence; format: in vivo, Setaria faberi; conditions: postemergence, 10 days; for Foxtail, Giant plant response rating: 125 g ai/ha, 0 to 100 scale, 0 no effect, 100 complete control; for Plant response rating, Foxtail, Giant: 500 g ai/ha, visual injury, 0 to 100 scale (0 no effect, 100 complete control)
Outline: as §1

oat, wild [6] = assay: Test A postemergence; format: in vivo, Avena fatua; conditions: postemergence, 10 days; for Oat, Wild plant response rating: 125 g ai/ha, 0 to 100 scale, 0 no effect, 100 complete control; for Plant response rating, Oat, Wild: 500 g ai/ha, visual injury, 0 to 100 scale (0 no effect, 100 complete control)
Outline: as §1

wheat [7] = assay: Test A postemergence; format: in vivo, Triticum aestivum; conditions: postemergence, 10 days; for Wheat plant response rating: 125 g ai/ha, 0 to 100 scale, 0 no effect, 100 complete control; for Plant response rating, Wheat: 500 g ai/ha, visual injury, 0 to 100 scale (0 no effect, 100 complete control)
Outline: as §1

blackgrass [8] = assay: Test A postemergence; format: in vivo, Alopecurus myosuroides; conditions: postemergence, 10 days; for Blackgrass plant response rating: 125 g ai/ha, 0 to 100 scale, 0 no effect, 100 complete control; for Plant response rating, Blackgrass: 500 g ai/ha, visual injury, 0 to 100 scale (0 no effect, 100 complete control)
Outline: as §1

corn [9] = assay: Test A postemergence; format: in vivo, Zea mays; conditions: postemergence, 10 days; for Corn plant response rating: 125 g ai/ha, 0 to 100 scale, 0 no effect, 100 complete control; for Plant response rating, Corn: 500 g ai/ha, visual injury, 0 to 100 scale (0 no effect, 100 complete control)
Outline: as §1

ragweed [10] = assay: Test A postemergence; format: in vivo, Ambrosia artemisiifolia; conditions: postemergence, 10 days; for Ragweed plant response rating: 125 g ai/ha, 0 to 100 scale, 0 no effect, 100 complete control; for Plant response rating, Ragweed: 500 g ai/ha, visual injury, 0 to 100 scale (0 no effect, 100 complete control)
Outline: as §1

sedge, umbrella = assay: Test B flooded paddy test; format: in vivo, Cyperus difformis; conditions: 250 g ai/ha, Flood, 13 days, 0 to 100 scale (0 no effect, 100 complete control)
Outline: (§2)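 Percent weed or crop control, judged by eye on a 0–100 scale 13 days post-treatment, reflects compound added to a 3 cm flood maintained over 2-leaf plants in the greenhouse. Missing entries are marked with a dash.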

ryegrass, Italian [11] = assay: Test A postemergence; format: in vivo, Lolium multiflorum; conditions: postemergence, 10 days; for Ryegrass, Italian plant response rating: 125 g ai/ha, 0 to 100 scale, 0 no effect, 100 complete control; for Plant response rating, Ryegrass, Italian: 500 g ai/ha, visual injury, 0 to 100 scale (0 no effect, 100 complete control)
Outline: as §1

corn [12] = assay: Test A preemergence; format: in vivo, Zea mays
Outline: as §1

goosegrass [13] = assay: Test A preemergence; format: in vivo, Eleusine indica
Outline: as §1

blackgrass [14] = assay: Test A preemergence; format: in vivo, Alopecurus myosuroides
Outline: as §1

ducksalad = assay: Test B flooded paddy test; format: in vivo, Heteranthera limosa; conditions: 250 g ai/ha, Flood, 13 days, 0 to 100 scale (0 no effect, 100 complete control)
Outline: as §2

rice = assay: Test B flooded paddy test; format: in vivo, Oryza sativa; conditions: 250 g ai/ha, Flood, 13 days, 0 to 100 scale (0 no effect, 100 complete control)
Outline: as §2

ryegrass, Italian [15] = assay: Test A preemergence; format: in vivo, Lolium multiflorum
Outline: as §1

foxtail, giant [16] = assay: Test A preemergence; format: in vivo, Setaria faberi
Outline: as §1

goosegrass [17] = assay: Test A postemergence; format: in vivo, Eleusine indica; conditions: postemergence, 10 days; for Goosegrass plant response rating: 125 g ai/ha, 0 to 100 scale, 0 no effect, 100 complete control; for Plant response rating, Goosegrass: 500 g ai/ha, visual injury, 0 to 100 scale (0 no effect, 100 complete control)
Outline: as §1

pigweed, palmer [18] = assay: Test A postemergence; format: in vivo, Amaranthus palmeri; conditions: postemergence, 10 days; for Pigweed, Palmer plant response rating: 125 g ai/ha, 0 to 100 scale, 0 no effect, 100 complete control; for Plant response rating, Pigweed, Palmer: 500 g ai/ha, visual injury, 0 to 100 scale (0 no effect, 100 complete control)
Outline: as §1

soybean [19] = assay: Test A postemergence; format: in vivo, Glycine max; conditions: postemergence, 10 days; for Soybean plant response rating: 125 g ai/ha, 0 to 100 scale, 0 no effect, 100 complete control; for Plant response rating, Soybean: 500 g ai/ha, visual injury, 0 to 100 scale (0 no effect, 100 complete control)
Outline: as §1

soybean [20] = assay: Test A preemergence; format: in vivo, Glycine max
Outline: as §1

kochia [21] = assay: Test A postemergence; format: in vivo, Bassia scoparia; conditions: postemergence, 10 days; for Kochia plant response rating: 125 g ai/ha, 0 to 100 scale, 0 no effect, 100 complete control; for Plant response rating, Kochia: 500 g ai/ha, visual injury, 0 to 100 scale (0 no effect, 100 complete control)
Outline: as §1

kochia [22] = assay: Test A preemergence; format: in vivo, Bassia scoparia
Outline: as §1

barnyardgrass = assay: Test B flooded paddy test; format: in vivo, Echinochloa crus-galli; conditions: 250 g ai/ha, Flood, 13 days, 0 to 100 scale (0 no effect, 100 complete control)
Outline: as §2

[23] = 125 g ai/ha, visual injury after 10 days, 0 to 100 scale, 0 is no effect, 100 is complete control
[24] = 500 g ai/ha, 0 to 100 scale (0 no effect, 100 complete control), 10 days

C[C@H]1CN(C(=O)c2cc(Cl)cc(-n3cncn3)c2)c2cccc(Cl)c2O1 [Compound 81]
80: Plant response rating, Oat, Wild (oat, wild [1]; [24]) | Plant response rating, Pigweed, Palmer (pigweed, palmer [2]; [24]) | Plant response rating, Ryegrass, Italian (ryegrass, Italian [15]; [24])
10: Plant response rating, Wheat (wheat [4]; [23]) | Plant response rating, Wheat (wheat [4]; [24]) | Oat, Wild plant response rating (oat, wild [6]) | Wheat plant response rating (wheat [7]) | Goosegrass plant response rating (goosegrass [17])
20: Foxtail, Giant plant response rating (foxtail, giant [5]) | Plant response rating, Oat, Wild (oat, wild [6]) | Plant response rating, Wheat (wheat [7]) | Ragweed plant response rating (ragweed [10]) | Plant response rating, Ragweed (ragweed [10]) | Plant response rating, Foxtail, Giant (foxtail, giant [16]; [23])
60: Plant response rating, Blackgrass (blackgrass [8]) | Plant response rating, Blackgrass (blackgrass [14]; [24]) | Pigweed, Palmer plant response rating (pigweed, palmer [18])
0: Horseweed plant response rating (horseweed) | Plant response rating, Horseweed (horseweed) | Plant response rating, Ragweed (ragweed [3]; [23]) | Plant response rating, Ragweed (ragweed [3]; [24]) | Blackgrass plant response rating (blackgrass [8]) | Corn plant response rating (corn [9]) | Plant response rating, Sedge, Umbrella (sedge, umbrella) | Plant response rating, Corn (corn [12]; [23]) | Plant response rating, Corn (corn [12]; [24]) | Plant response rating, Ducksalad (ducksalad) | Plant response rating, Rice (rice) | Plant response rating, Soybean (soybean [20]; [23]) | Plant response rating, Soybean (soybean [20]; [24]) | Plant response rating, Kochia (kochia [22]; [23]) | Plant response rating, Barnyardgrass (barnyardgrass)
50: Plant response rating, Oat, Wild (oat, wild [1]; [23]) | Plant response rating, Corn (corn [9]) | Plant response rating, Ryegrass, Italian (ryegrass, Italian [15]; [23]) | Kochia plant response rating (kochia [21])
100: Plant response rating, Ryegrass, Italian (ryegrass, Italian [11]) | Soybean plant response rating (soybean [19]) | Plant response rating, Soybean (soybean [19])
70: Plant response rating, Goosegrass (goosegrass [13]; [23])
90: Plant response rating, Foxtail, Giant (foxtail, giant [5]) | Plant response rating, Goosegrass (goosegrass [13]; [24]) | Plant response rating, Foxtail, Giant (foxtail, giant [16]; [24]) | Plant response rating, Pigweed, Palmer (pigweed, palmer [18]) | Plant response rating, Kochia (kochia [21])
30: Plant response rating, Pigweed, Palmer (pigweed, palmer [2]; [23]) | Ryegrass, Italian plant response rating (ryegrass, Italian [11]) | Plant response rating, Blackgrass (blackgrass [14]; [23]) | Plant response rating, Goosegrass (goosegrass [17]) | Plant response rating, Kochia (kochia [22]; [24])

Cc1cccc2c1O[C@@H](C)CN2C(=O)c1cccc(-n2cnc(C3CCCCC3)n2)c1 [Compound 82]
20: Plant response rating, Oat, Wild (oat, wild [1]; [24]) | Plant response rating, Goosegrass (goosegrass [13]; [23]) | Plant response rating, Foxtail, Giant (foxtail, giant [16]; [24]) | Plant response rating, Goosegrass (goosegrass [17])
100: Plant response rating, Ryegrass, Italian (ryegrass, Italian [15]; [24])
30: Plant response rating, Ryegrass, Italian (ryegrass, Italian [11])
10: Plant response rating, Oat, Wild (oat, wild [1]; [23]) | Foxtail, Giant plant response rating (foxtail, giant [5]) | Plant response rating, Foxtail, Giant (foxtail, giant [5]) | Wheat plant response rating (wheat [7]) | Plant response rating, Wheat (wheat [7]) | Plant response rating, Blackgrass (blackgrass [8]) | Plant response rating, Corn (corn [9]) | Plant response rating, Corn (corn [12]; [24])
60: Plant response rating, Ryegrass, Italian (ryegrass, Italian [15]; [23])
90: Plant response rating, Goosegrass (goosegrass [13]; [24]) | Soybean plant response rating (soybean [19]) | Plant response rating, Soybean (soybean [19])
50: Plant response rating, Ragweed (ragweed [10]) | Plant response rating, Pigweed, Palmer (pigweed, palmer [18])
70: Kochia plant response rating (kochia [21])
80: Plant response rating, Kochia (kochia [21])
40: Plant response rating, Pigweed, Palmer (pigweed, palmer [2]; [24])
0: Plant response rating, Pigweed, Palmer (pigweed, palmer [2]; [23]) | Horseweed plant response rating (horseweed) | Plant response rating, Horseweed (horseweed) | Plant response rating, Ragweed (ragweed [3]; [23]) | Plant response rating, Ragweed (ragweed [3]; [24]) | Plant response rating, Wheat (wheat [4]; [23]) | Plant response rating, Wheat (wheat [4]; [24]) | Oat, Wild plant response rating (oat, wild [6]) | Plant response rating, Oat, Wild (oat, wild [6]) | Blackgrass plant response rating (blackgrass [8]) | Corn plant response rating (corn [9]) | Ragweed plant response rating (ragweed [10]) | Plant response rating, Sedge, Umbrella (sedge, umbrella) | Ryegrass, Italian plant response rating (ryegrass, Italian [11]) | Plant response rating, Corn (corn [12]; [23]) | Plant response rating, Blackgrass (blackgrass [14]; [23]) | Plant response rating, Blackgrass (blackgrass [14]; [24]) | Plant response rating, Ducksalad (ducksalad) | Plant response rating, Rice (rice) | Plant response rating, Foxtail, Giant (foxtail, giant [16]; [23]) | Goosegrass plant response rating (goosegrass [17]) | Pigweed, Palmer plant response rating (pigweed, palmer [18]) | Plant response rating, Soybean (soybean [20]; [23]) | Plant response rating, Soybean (soybean [20]; [24]) | Plant response rating, Kochia (kochia [22]; [23]) | Plant response rating, Kochia (kochia [22]; [24]) | Plant response rating, Barnyardgrass (barnyardgrass)
